PubChem BioAssay AID1249 (Columbia University Molecular Screening Center, 2008)
The source made the active and inactive calls. How the calls were made is not given here.

Assay: modifiers of cytoskeleton assembly, confirmation, imaging, high-content imaging, retest and dose response (AID 1249);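 further: compound exposure lasted 24 h before fixation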;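 on inhibition: plate controls were untreated cells for no effect and reference compound treated cells for full effect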
Details: cell-based imaging, cytoskeleton assembly phenotype, high content; for inhibition: at 2 µM, stronger effect = higher value

Row | Compound | inhibition | cell count (cell count, at 10 µM, stronger effect = lower value) [%]
1 | CN1Cc2cc(C(=O)c3cc(Cl)cc(CSc4ncccn4)c3O)cnc2NC1=O | 10.6% (inactive) | –
2 | CC(NC(=O)COC(=O)Cc1ccsc1)C1CC2CCC1C2 (stereo unspecified) | -7.6% (inactive) | –
3 | CCCCCCOC(=O)NCC(O)c1ccccc1 (stereo unspecified) | 9.1% (inactive) | –
4 | Cc1cc(C(=O)CSc2nnc(-c3ccc(F)cc3)o2)c(C)n1CC1COc2ccccc2O1 (stereo unspecified) | -0.5% (inactive) | –
5 | CC1CCN(C(=O)C2c3ccccc3C(=O)N3CCc4ccccc4C23)CC1 (stereo unspecified) | -3.8% (inactive) | –
6 | CCCn1nc([N+](=O)[O-])c(C(C#N)c2nc3ccccc3s2)c(Cl)c1=O (stereo unspecified) | 1.3% (inactive) | –
7 | CCN(CC)C(=O)CN(c1ccc(Cl)cc1)S(=O)(=O)c1ccccc1 | 0.4% (inactive) | –
8 | CCCCCCCCCCn1c2c(c(=N)c3c1CCC3)CCC2 | -24.6% (inactive) | –
9 | NC(=O)c1c(NC(=O)Cc2cccs2)sc2c1CCC2 | 6.6% (inactive) | –
10 | Cc1ccc(CNC(=O)Cn2ccc3ccccc3c2=O)o1 | -10.7% (inactive) | –
11 | COC(=O)c1ccccc1NC(NC(=O)c1ccco1)C(=O)c1ccc(C)cc1 (stereo unspecified) | 2.9% (inactive) | –
12 | Cc1cc(C)n(-c2nc(-c3cccc(Cl)c3)cs2)n1 | -10.2% (inactive) | –
13 | CSCCC(NC(=O)OCc1ccccc1)C(=O)O (stereo unspecified) | -2% (inactive) | –
14 | COc1cccc(CNC(=O)C(=O)NCC2CCCO2)c1 (stereo unspecified) | -16.1% (inactive) | –
15 | CCC(=O)Nc1cccc(C(=O)/C=C/c2cc(Br)ccc2OC)c1 | 0% (inactive) | –
16 | CC(C)Sc1nc2c(c(=O)n1-c1ccc(F)cc1)SCC2 | -6.3% (inactive) | –
17 | COc1ccc(OC)c(NS(=O)(=O)c2ccc(N3CCCC3=O)cc2)c1 | -3.6% (inactive) | –
18 | CCOc1ccc2nc(C)cc(Nc3ccc4c(c3)OCCO4)c2c1 | 7.5% (inactive) | –
19 | Cc1cc(C)cc(OCc2nnc(SCC(=O)N3CCN(c4ccccc4)CC3)o2)c1 | -9.6% (inactive) | –
20 | CCCOc1ccc(C(=O)C(CN2CCOCC2)c2ccccc2)cc1 (stereo unspecified) | 4.4% (inactive) | –
21 | CCOC(=O)C(C)Oc1cccc2c(=O)n(CC(=O)NCc3ccc4c(c3)OCO4)ccc12 (stereo unspecified) | 1.3% (inactive) | –
22 | CC(C)n1c(C(=O)OCC(=O)NCc2ccc3c(c2)OCO3)cc2sccc21 | 14.1% (inactive) | –
23 | COc1ccc(C2=Nn3c(nnc3-c3ccccc3OC)SC2)cc1OC | 0.9% (inactive) | –
24 | NC(=S)N/N=C\c1ccc(-c2cccc(Cl)c2Cl)o1 | -8.9% (inactive) | –
25 | CC(C)c1nnc(NC(=O)CCC(=O)N2CCN(C3CCCCC3)CC2)s1 | 3.6% (inactive) | –
26 | O=C(c1ccc([N+](=O)[O-])cc1)N(Cc1ccc(Cl)cc1)N1C(=O)CCCC1=O | -0.3% (inactive) | –

Row | Compound | inhibition | cell count (cell count, at 10 µM, stronger effect = lower value) [%]
27 | COc1cc2c(O)c3c(c(-c4ccc5c(c4)OCO5)c2cc1OC)C(=O)OC3 | 1.5% (inactive) | –
28 | O=C1c2cccc3c([N+](=O)[O-])ccc(c23)C(=O)N1c1ccc(Cl)cn1 | -13.4% (inactive) | –
29 | COc1ccc(-c2nc(C#N)c(NCCCN(C)C)o2)cc1OC | 4.5% (inactive) | –
30 | COc1ccc(NC(=O)N(Cc2ccc3c(c2)OCO3)C2CC(=O)N(c3ccc(OC)cc3)C2=O)cc1 (stereo unspecified) | -22.4% (inactive) | –
31 | CC(N)Cc1ccccc1Sc1ccc(O)cc1 (stereo unspecified) | 5.2% (inactive) | –
32 | O=C(COC(=O)C1c2ccccc2Oc2ccccc21)NC1CCS(=O)(=O)C1 (stereo unspecified) | -16.7% (inactive) | –
33 | CCOC(=O)Cc1csc(NC(=O)COc2ccc(N(C)S(=O)(=O)c3ccc(C)cc3)cc2)n1 | 0% (inactive) | –
34 | CCc1nc2oc3ccccc3c(=O)c2c(=O)n1CCOC | 1.7% (inactive) | –
35 | COC(=O)CN(c1ccc(F)cc1)S(=O)(=O)c1ccc2c(c1)OCCO2 | 10.7% (inactive) | –
36 | COc1ccc(-c2cc(=O)[nH]c(NCc3ccccc3)n2)cc1 | -1.7% (inactive) | –
37 | O=C(N/N=C/c1ccncc1)c1ccccc1 | 1.1% (inactive) | –
38 | O=C1C(Cc2ccccc2)NC(=S)N1c1ccccc1 (stereo unspecified) | 3.1% (inactive) | –
39 | Cc1nc([N+](=O)[O-])c(Br)n1CC(=O)c1ccc(Br)cc1 | -7.3% (inactive) | –
40 | CC(C(=O)Nc1ccc(Br)cc1C(=O)c1ccccc1)N1CCOCC1 (stereo unspecified) | 6% (inactive) | –
41 | CCOC(=O)N1CCN(C(=O)COc2ccc(Cl)cc2C)CC1 | 0.3% (inactive) | –
42 | O=C(OCC(=O)N1CCN(c2ccccc2)CC1)c1ccc2ncsc2c1 | 0.2% (inactive) | –
43 | O=C(CC(c1ccccc1)c1ccccc1)NCC1CCCO1 (stereo unspecified) | -0.2% (inactive) | –
44 | CCN1CCN(Cc2c(C)[nH]c3ccc(C(=O)OC)cc3c2=O)CC1 | -6.7% (inactive) | –
45 | COc1ccc(CC(=O)OCc2cc3ccc(C)cc3[nH]c2=O)cc1 | 5.4% (inactive) | –
46 | CSc1ccc(S(=O)(=O)Nc2ccc3c4c(cccc24)CC3)cc1 | -10% (inactive) | –
47 | Cc1ccccc1-c1nc(CN2CCC(C(=O)NCCCN3CC(C)CC(C)C3)CC2)c(C)o1 (stereo unspecified) | 0.8% (inactive) | –
48 | COC(=O)C1C(=O)C2=C(CC1C)NC(=O)CC2c1cccc(C)c1 (stereo unspecified) | -3.5% (inactive) | –
49 | CC(C)NC1CS(=O)(=O)CC1O (stereo unspecified) | 4.9% (inactive) | –
50 | O=C(Nc1cnccn1)C1c2ccccc2Oc2ccccc21 | 9.9% (inactive) | –
51 | CCC(C)C1C(C#N)=C(N)Oc2n[nH]c(-c3ccccc3)c21 (stereo unspecified) | 1.1% (inactive) | –
52 | COc1ccc(C(=O)c2c(C(F)(F)F)oc3c2C(=O)c2ccccc2C3=O)cc1 | -14.9% (inactive) | –

Row | Compound | inhibition | cell count (cell count, at 10 µM, stronger effect = lower value) [%]
53 | CCC1=NC(c2ccccc2Cl)N(O)C1(C)C (stereo unspecified) | 7.9% (inactive) | –
54 | COc1ccc(CCNc2oc(COc3ccccc3F)nc2C#N)cc1 | 0% (inactive) | –
55 | CCOC(=O)Cn1c(SC)nc2sc3c(c2c1=O)CC(C)(C)OC3 | -24.8% (inactive) | –
56 | COc1ccccc1-c1cn(S(=O)(=O)c2ccc(C)cc2)nc1N | 7.9% (inactive) | –
57 | O=C(CS(=O)(=O)c1cn(Cc2cccc(F)c2)c2ccccc12)N1CCCCC1 | -1.5% (inactive) | –
58 | COc1ccc(-c2nnc(SCC(=O)N3CCCc4ccccc43)o2)cc1OC | -16.4% (inactive) | –
59 | COc1cc2c3c(c1OC)-c1cc(O)ccc1CC3NCC2 (stereo unspecified) | -1.7% (inactive) | –
60 | O=C1CC(N2CCN(Cc3ccc4c(c3)OCO4)CC2)C(=O)N1c1ccccc1 (stereo unspecified) | -6.6% (inactive) | –
61 | CCOC(=O)c1ccc(CNC(=O)CCC(=O)O)cc1 | -7% (inactive) | –
62 | CCCCCCCC(=O)N/N=C(\C)c1cccnc1 | 2.2% (inactive) | –
63 | O=S(=O)(C/C(=C/CO)S(=O)(=O)c1ccccc1)c1ccccc1 | -4.1% (inactive) | –
64 | Cc1cc(NC(=O)NC(=O)c2cccc(OC(F)(F)C(F)F)c2)n[nH]1 | -2.9% (inactive) | –
65 | Nc1sccc1C(=O)c1ccc(Cl)cc1 | -15.5% (inactive) | –
66 | Cn1c(NC(=O)C2c3ccccc3Oc3ccccc32)cc(=O)n(C)c1=O | -0.3% (inactive) | –
67 | Cn1cc(-c2nnnn2-c2ccc(Cl)cc2)c(=O)c2ccccc21 | -6.6% (inactive) | –
68 | CSc1ccc(CNC2CN3CCC2CC3)cc1 (stereo unspecified) | 1.5% (inactive) | –
69 | Cc1ccc(OCc2ccoc2C(=O)O)cc1C | -8.8% (inactive) | –
70 | Cc1cc(C)cc(NC(=O)CC2NCCNC2=O)c1 (stereo unspecified) | -1.4% (inactive) | –
71 | CCOC(=O)Cc1csc(SCC(=O)/C(C#N)=C(\C)N)n1 | -9.5% (inactive) | –
72 | O=S(=O)(Cc1ccccc1Cl)N1CCN(Cc2ccc3c(c2)OCO3)CC1 | 41.5% (inactive) | –
73 | COC(=O)c1ccccc1NC(=O)c1ccc(-c2cccc(Cl)c2)o1 | 2.6% (inactive) | –
74 | NC(=O)COC(=O)CCCc1c[nH]c2ccccc12 | 2.3% (inactive) | –
75 | O=C(NCc1ccco1)c1ccc(CS(=O)(=O)Cc2ccc(Cl)cc2)o1 | -2.2% (inactive) | –
76 | O=C1N2CCSC2=NC1(Nc1ccccn1)C(F)(F)F (stereo unspecified) | -0.2% (inactive) | –
77 | CCOC(=O)c1cnn(-c2nc3c(C)cccc3s2)c1C | -1.2% (inactive) | –
78 | O=C(O)CCC(=O)NC1CCCCCCC1 | 3.8% (inactive) | –

Row | Compound | inhibition | cell count (cell count, at 10 µM, stronger effect = lower value) [%]
79 | CCOC(=O)C1=C(c2ccccc2)OC(N)=C(C#N)C1c1ccco1 (stereo unspecified) | -12.1% (inactive) | –
80 | COc1cc(C(=O)N/N=C/c2ccsc2C)cc(OC)c1OC | – | 34.2
81 | Cc1nc(S(=O)(=O)N(C)Cc2ccccc2)c(C#N)c(C)c1Cl | -5.1% (inactive) | –
82 | C=CCNC(=O)C1CC(=O)N(c2ccc(OCC(=O)Nc3cccc(OC)c3)cc2)C1 (stereo unspecified) | -2% (inactive) | –
83 | CSc1nnc2n(-c3ccccc3)c(=O)c3c4c(sc3n12)CCC4 | 8.1% (inactive) | –
84 | Cc1cccc(CS(=O)(=O)c2nnc([C@H](Cc3ccccc3)NC(=O)OC(C)(C)C)o2)c1 | -5% (inactive) | –
85 | CCS(=O)(=O)N1CCC(C(=O)NC2CCCCC2)CC1 | 3.1% (inactive) | –
86 | CCOC(=O)c1ccc(N2C(=O)CC(N3CCC(O)(c4ccc(Br)cc4)CC3)C2=O)cc1 (stereo unspecified) | 5.5% (inactive) | –
87 | CNc1c([N+](=O)[O-])cnn1-c1ccc(Cl)cc1 | -10.2% (inactive) | –
88 | CCOC(=O)C1=C(SCC)c2cc3c(n2C1=O)CCCC3 | 8.4% (inactive) | –
89 | CN1CCCCc2c1[nH]c1ccccc1c2=O | 5.2% (inactive) | –
90 | CCOc1cc(NC(=O)c2ccco2)c(OCC)cc1NC(=O)CCC(=O)NCc1cccnc1 | 5.4% (inactive) | –
91 | O=c1n(Cc2ccccc2F)c2ccccc2n1Cc1ccccc1F | 5.3% (inactive) | –
92 | CCc1nnc(NC(=O)C2c3ccccc3Oc3ccccc32)s1 | 2.3% (inactive) | –
93 | Clc1ccc(C2=Nn3c(nnc3-c3cccnc3)SC2)s1 | 0% (inactive) | –
94 | C=CCOc1c2ccc(C(=O)NCc3ccccc3OC)cc2nn1C | -6.1% (inactive) | –
95 | Cc1ccccc1OCC(=O)Nc1ccc2c(c1)COC2=O | -15.6% (inactive) | –
96 | O=C1Nc2ccc(S(=O)(=O)N3CCOCC3)c3cccc1c23 | 0.5% (inactive) | –
97 | CCOC(=O)c1ccc(NC(=O)Cn2nnc(-c3ccccc3)n2)cc1 | 1.3% (inactive) | –
98 | CCCOC(=O)CSC1=C(C#N)C(c2ccccc2OC)C(C#N)C(=O)N1 (stereo unspecified) | -1.7% (inactive) | –
99 | CCOc1cc(C(=O)Nc2cccc3ncccc23)cc(OCC)c1OCC | -20.6% (inactive) | –
100 | Cc1ccc(CSc2nc3ccccc3cc2C=O)cc1 | -4% (inactive) | –
101 | O=C(CN1CCC(c2nc3ccccc3s2)CC1)NCc1cccs1 | 4% (inactive) | –
